Test results reported in patent US20230210877A1, “A Composition for Management of COVID-19 and Associated Disorders” (priority 2020, published 2023).

Test system: isoproterenol induced myocardial infarction
Experiment: isoproterenol induced myocardial infarction rat model
Assay type: in vivo
Design: TNF-A: unit not given here
Settings: rats, isoproterenol 90 mg/kg bwt. + treatment 138 mg/kg bwt. (total)

SMILES	GOT	GPT	LDH	TNF-A
O=C(O)[C@H]1O[C@@H](Oc2cc3oc(-c4ccccc4)cc(=O)c3c(O)c2O)[C@H](O)[C@@H](O)[C@@H]1O [Biacalin, Baicalin]	110.37	79.57	138.67	438.58
O=c1c(O)c(-c2ccc(O)c(O)c2)oc2cc(O)cc(O)c12 [Quercetin]	103.33	90.47	121.00	411.70
O=C(O[C@@H]1Cc2c(O)cc(O)cc2O[C@@H]1c1cc(O)c(O)c(O)c1)c1cc(O)c(O)c(O)c1 [EGCG, Epigallocatechin gallate]	139.15	75.30		408.29
